ChEMBL document CHEMBL1201862, “PubChem BioAssay data set” (2004)
Activity calls are given as the source filed them.

What was measured:
[1] = molecular target: T1, Peroxisome proliferator-activated receptor gamma (Homo sapiens, UniProt P37231); test: competitive ligand displacement at PPARg – biochemical, TR-FRET, LanthaScreen, PPARg partial agonist project, dose response (AID 504446)
T1 sequence (P37231 whole entry): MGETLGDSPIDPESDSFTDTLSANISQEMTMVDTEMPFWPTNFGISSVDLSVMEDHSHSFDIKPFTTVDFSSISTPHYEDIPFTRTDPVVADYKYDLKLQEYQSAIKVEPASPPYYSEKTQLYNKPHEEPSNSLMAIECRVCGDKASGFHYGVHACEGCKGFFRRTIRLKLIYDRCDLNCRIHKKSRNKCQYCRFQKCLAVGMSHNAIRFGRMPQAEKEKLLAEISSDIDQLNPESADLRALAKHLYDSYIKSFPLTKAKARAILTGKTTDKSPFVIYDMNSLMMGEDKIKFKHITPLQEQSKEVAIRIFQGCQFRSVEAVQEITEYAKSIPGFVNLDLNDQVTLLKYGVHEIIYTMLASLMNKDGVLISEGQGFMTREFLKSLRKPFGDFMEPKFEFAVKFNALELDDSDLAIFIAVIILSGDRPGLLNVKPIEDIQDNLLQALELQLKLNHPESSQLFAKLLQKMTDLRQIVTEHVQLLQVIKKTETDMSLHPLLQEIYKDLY

[2] = molecular target: T1, Peroxisome proliferator-activated receptor gamma; test: PPARg transcriptional activation, reporter cells – cell-based, luminescence, assay provider, dose response (AID 504447); assay type: functional
[3] = molecular target: T1, Peroxisome proliferator-activated receptor gamma; test: competitive ligand displacement at PPARg – biochemical, fluorescence polarization, PolarScreen, PPARg partial agonist project, dose response (AID 504453)
Coagulation factor XII = Coagulation factor XII (Homo sapiens, UniProt P00748); assay type: functional;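 also: activated factor XIIa alpha cleaving a fluorogenic AMC peptide substrate; inhibitor potency from loss of enzyme activity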
[4] = molecular target: DNA damage-inducible transcript 3 protein (Mus musculus, UniProt P35639); assay type: functional, Cricetulus griseus
[5] = Luminescence Cell-Based Dose Response HTS to Identify Inhibitors of 5'UTR Stem-Loop Driven Prion Protein mRNA Translation in H4 Neuroglioblastoma Cells. [Related pubchem assays: 1827 (Project Summary), 1813 (Primary HTS)]; assay type: functional
[6] = Luminescence Cell-Based Dose Confirmation HTS to Identify Inhibitors of 5'UTR Stem-Loop Driven Alpha-Synuclein mRNA Translation in H4 Neuroglioblastoma Cells. [Related pubchem assays: 1827 (Project Summary), 1813 (Primary HTS)]; assay type: functional
[7] = Luminescence Cell-Based Dose Response HTS to Identify Inhibitors of Luciferase Translation or Activity in H4-C Neuroglioblastoma Cells. [Related pubchem assays: 1813 (Primary HTS), 1827 (Project Summary)]; assay type: functional
[8] = alpha-synuclein stem-loop luciferase translation blockers – H4 neuroglioma cells, luminescence, confirmation (AID 1988); assay type: functional, cell-based
[9] = Luminescence Cell-Based Dose Response HTS to Identify Activators of 5'UTR Stem-Loop Driven Prion Protein mRNA Translation in H4-C Neuroglioblastoma Cells. [Related pubchem assays: 1829 (Project Summary), 1814 (Primary HTS)]; assay type: functional
[10] = Luminescence Cell-Based Dose Response HTS to Identify Activators of Luciferase Translation or Activity in H4-C Neuroglioblastoma Cells. [Related pubchem assays: 1829 (Project Summary), 1814 (Primary HTS)]; assay type: functional
[11] = luciferase reporter signal suppression in cells – H4 neuroglioma cells, luminescence, dose response (AID 1990); assay type: functional, cell-based
[12] = Luminescence Cell-Based Dose Retest to Confirm Activators of 5'UTR Stem-Loop Driven Alpha-Synuclein mRNA Translation in H4 Neuroglioblastoma Cells. [Related pubchem assays (depositor defined):AID1813, AID1829]; assay type: functional
[13] = Luminescence Cell-Based Dose HTS Response to Identify Inhibitors of 5'UTR Stem-Loop Driven Prion Protein mRNA Translation in H4-C Neuroglioblastoma Cells. [Related pubchem assays (depositor defined):AID1814, AID1827]; assay type: functional
[14] = molecular target: T2, Runt-related transcription factor 1/Core-binding factor subunit beta (Homo sapiens, UniProt Q01196+Q13951); test: disruptors of Runt domain/CBFb-SMMHC interaction – biochemical, FRET, Cerulean-Runt, Venus-CBFb-SMMHC, uHTS, […] (AID 1434); assay type: protein assay
[15] = molecular target: Induced myeloid leukemia cell differentiation protein Mcl-1 (Homo sapiens, UniProt Q07820); assay type: functional
[16] = molecular target: T2, Runt-related transcription factor 1/Core-binding factor subunit beta; test: Runt domain/CBFb-SMMHC interaction disruptors – biochemical, TR-FRET (AID 1438); assay type: protein assay
[17] = HepG2 cell cytotoxicity, dose response, cytotoxicity control for non-replicating M. tuberculosis project (AID 489018); assay type: functional; details: Mycobacterium tuberculosis
[18] = Vero E6 cell cytotoxicity, dose response, cytotoxicity control for non-replicating M. tuberculosis project, secondary assay (AID 492998); assay type: functional, VeroE6; details: Vero C1008
[19] = molecular target: T3, DNA repair protein RAD52 homolog (Homo sapiens, UniProt P43351); assay type: functional, biochemical
T3 sequence (P43351 whole entry): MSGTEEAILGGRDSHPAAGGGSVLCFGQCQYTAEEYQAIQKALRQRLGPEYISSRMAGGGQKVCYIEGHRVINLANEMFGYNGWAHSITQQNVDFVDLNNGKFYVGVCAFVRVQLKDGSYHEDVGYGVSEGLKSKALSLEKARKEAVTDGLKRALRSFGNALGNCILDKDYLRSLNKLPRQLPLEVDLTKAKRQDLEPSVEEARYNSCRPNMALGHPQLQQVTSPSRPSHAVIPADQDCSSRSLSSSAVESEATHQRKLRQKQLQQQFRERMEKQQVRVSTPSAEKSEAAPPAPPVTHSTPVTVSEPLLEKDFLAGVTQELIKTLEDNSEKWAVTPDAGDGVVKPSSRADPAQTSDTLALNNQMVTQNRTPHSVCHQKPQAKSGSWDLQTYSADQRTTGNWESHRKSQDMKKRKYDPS

[20] = molecular target: T4, Heat shock factor protein 1 (Mus musculus, UniProt P38532); test: decrease of HSF1-responsive luciferase luminescence – cell-based, NIH3T3, dose retest, confirmation (AID 2382); assay type: functional;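 also: NIH3T3 fibroblasts with HSF1-driven luciferase reporter stressed by proteasome inhibitor MG132; luminescence from HSF1-driven luciferase expression after 8 hours of MG132 stress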
T4 sequence (P38532 whole entry): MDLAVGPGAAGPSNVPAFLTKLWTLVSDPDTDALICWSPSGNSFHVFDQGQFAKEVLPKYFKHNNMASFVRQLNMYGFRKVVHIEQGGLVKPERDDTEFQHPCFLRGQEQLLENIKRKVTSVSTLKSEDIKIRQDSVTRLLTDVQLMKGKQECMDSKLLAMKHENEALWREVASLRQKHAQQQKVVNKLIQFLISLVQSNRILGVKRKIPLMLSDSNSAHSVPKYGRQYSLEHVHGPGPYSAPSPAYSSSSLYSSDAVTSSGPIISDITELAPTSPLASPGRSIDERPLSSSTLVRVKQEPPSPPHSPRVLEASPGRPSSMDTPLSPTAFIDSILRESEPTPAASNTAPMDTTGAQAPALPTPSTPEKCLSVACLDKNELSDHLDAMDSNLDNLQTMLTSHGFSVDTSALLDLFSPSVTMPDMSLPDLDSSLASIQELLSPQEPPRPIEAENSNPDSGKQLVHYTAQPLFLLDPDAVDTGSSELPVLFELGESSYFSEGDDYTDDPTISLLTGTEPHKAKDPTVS

[21] = THP-1 cell cytotoxicity, dose response, cytotoxicity control for non-replicating M. tuberculosis project (AID 489025); assay type: functional
cells = assay type: functional
[22] = molecular target: T4, Heat shock factor protein 1; test: enhancement of HSF1-driven luciferase signal – cell-based, NIH3T3, luminescence, dose retest, confirmation (AID 435004); assay type: functional;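 also: stress induced by proteasome inhibitor MG132 added 30 min after compound; luciferase reporter driven by HSF1 response element in NIH3T3 cells; actives raise luminescence as potentiators of the MG132 stress response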
Mucolipin-3 = molecular target: T5, Mucolipin-3 (Homo sapiens, UniProt Q8TDD5); test: Dose response cell-based high-throughput screening assay for agonists of the transient receptor potential channel ML3 (TRPML3). [Related pubchem assays: 1526, 1424, 1448 ]; assay type: functional
T5 sequence (Q8TDD5 whole entry): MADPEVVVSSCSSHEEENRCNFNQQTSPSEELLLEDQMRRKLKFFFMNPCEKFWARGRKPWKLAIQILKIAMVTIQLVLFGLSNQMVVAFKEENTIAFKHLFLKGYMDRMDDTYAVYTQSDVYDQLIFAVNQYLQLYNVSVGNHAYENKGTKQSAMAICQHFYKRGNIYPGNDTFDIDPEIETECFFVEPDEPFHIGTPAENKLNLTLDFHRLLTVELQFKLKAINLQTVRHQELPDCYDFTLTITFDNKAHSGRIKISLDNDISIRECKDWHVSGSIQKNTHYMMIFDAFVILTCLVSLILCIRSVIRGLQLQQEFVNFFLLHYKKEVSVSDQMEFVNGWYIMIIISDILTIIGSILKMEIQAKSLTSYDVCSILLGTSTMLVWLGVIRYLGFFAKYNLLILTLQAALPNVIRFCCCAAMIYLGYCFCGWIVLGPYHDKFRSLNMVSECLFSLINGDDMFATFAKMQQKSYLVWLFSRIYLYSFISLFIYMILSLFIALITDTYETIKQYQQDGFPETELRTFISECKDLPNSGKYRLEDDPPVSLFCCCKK

[23] = molecular target: Type-1 angiotensin II receptor (Homo sapiens, UniProt P30556); test: agonist activity at AGTR1 – cell-based, uHTS hits, selectivity assay for APJ receptor agonist project, dose response (AID 488865); assay type: functional;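 also: beta-arrestin recruitment to AT1 measured by enzyme fragment complementation luminescence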
[24] = Fluorescence-based cell-based high throughput dose response assay for inhibitors of the interaction of nucleotide-binding oligomerization domain containing 2 (NOD2) and the receptor-interacting serine-threonine kinase 2 (RIPK2).; assay type: functional; details: Homo sapiens
[25] = molecular target: T6, High affinity choline transporter 1 (Homo sapiens, UniProt Q9GZV3); test: human choline transporter blockers, potency – cell-based, 5-point CRC, membrane potential dye, dose response (AID 504840); assay type: functional
T6 sequence (Q9GZV3 whole entry): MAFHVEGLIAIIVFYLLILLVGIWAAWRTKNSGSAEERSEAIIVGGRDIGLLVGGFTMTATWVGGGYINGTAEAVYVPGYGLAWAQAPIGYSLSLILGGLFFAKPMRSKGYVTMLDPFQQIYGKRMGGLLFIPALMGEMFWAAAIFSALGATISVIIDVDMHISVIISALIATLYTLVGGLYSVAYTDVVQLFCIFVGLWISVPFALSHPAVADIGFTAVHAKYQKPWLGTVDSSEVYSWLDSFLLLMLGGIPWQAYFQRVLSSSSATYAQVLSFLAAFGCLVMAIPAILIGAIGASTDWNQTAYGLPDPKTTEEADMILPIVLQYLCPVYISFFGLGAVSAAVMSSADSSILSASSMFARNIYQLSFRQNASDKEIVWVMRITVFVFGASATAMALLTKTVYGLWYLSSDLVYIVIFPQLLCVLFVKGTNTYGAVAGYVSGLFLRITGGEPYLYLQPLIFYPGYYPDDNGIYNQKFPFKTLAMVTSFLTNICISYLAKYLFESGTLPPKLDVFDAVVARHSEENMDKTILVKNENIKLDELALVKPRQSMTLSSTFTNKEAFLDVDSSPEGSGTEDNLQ

Beta Lactamase = Beta Lactamase (Pseudomonas aeruginosa, UniProt Q932Y6); test: BLA reporter interference, concentration series – BLA reporter cells, FRET fluorescence, artefact control for NOD2-RIPK2 interaction inhibitor project, dose response (AID 651552); assay type: functional, cell-based
INS1 = test: INS-1E survival protection against cytokine death – cell-based, luminescence, retest, dose response (AID 449756); assay type: functional; details: Rattus norvegicus;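 also: cell death triggered by IL-1 beta plus TNF-alpha plus IFN-gamma mixture; protective hits raise ATP signal compared with cytokine alone wells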
Paired box protein Pax-8 = Paired box protein Pax-8 (Homo sapiens, UniProt Q06710); test: PAX8 transcriptional activity inhibition in RMG-I – RMG-I cells, luciferase, cherry-pick, dose response (AID 687027); assay type: functional, cell-based;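 also: luciferase reporter driven by Pax8 target thyroperoxidase promoter measured by SteadyGlo luminescence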
[26] = molecular target: Heat shock protein HSP 90-alpha (Homo sapiens, UniProt P07900); assay type: functional, organism-based
[27] = microbe, parasite or virus in culture; assay type: functional; details: Mycobacterium tuberculosis
Ion channel NompC = Ion channel NompC (Danio rerio, UniProt Q7T1G6); test: Fluorescence counterscreen assay for TRPML3 agonists: dose response cell-based high-throughput screening assay to identify agonists of the transient receptor potential channel N1 (TRPN1). [Related pubchem assays: 1526, 1424, 1448 ]; assay type: functional
[28] = molecular target: Voltage-dependent T-type calcium channel subunit alpha-1H (Homo sapiens, UniProt O95180); test: human CACNA1H calcium influx blockade – cell-based, synthetic library set 2, HEK293 HH8, Fluo-4, SAR follow-up (AID 493023); assay type: functional

T2 sequence (Q01196 whole entry, the tested form may be a part): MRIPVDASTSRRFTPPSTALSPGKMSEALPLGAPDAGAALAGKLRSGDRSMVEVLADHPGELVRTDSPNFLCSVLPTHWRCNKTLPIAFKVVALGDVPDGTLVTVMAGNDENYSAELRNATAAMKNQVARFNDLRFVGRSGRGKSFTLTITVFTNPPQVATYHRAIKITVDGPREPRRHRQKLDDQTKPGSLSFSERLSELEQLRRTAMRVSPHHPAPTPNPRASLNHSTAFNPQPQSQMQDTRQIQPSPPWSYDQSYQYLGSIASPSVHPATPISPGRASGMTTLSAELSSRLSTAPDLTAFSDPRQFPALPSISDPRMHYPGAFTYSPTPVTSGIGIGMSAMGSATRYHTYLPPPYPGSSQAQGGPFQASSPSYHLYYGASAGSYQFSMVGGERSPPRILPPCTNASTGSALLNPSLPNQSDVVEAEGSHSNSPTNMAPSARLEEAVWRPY
T2 sequence (Q13951 whole entry, the tested form may be a part): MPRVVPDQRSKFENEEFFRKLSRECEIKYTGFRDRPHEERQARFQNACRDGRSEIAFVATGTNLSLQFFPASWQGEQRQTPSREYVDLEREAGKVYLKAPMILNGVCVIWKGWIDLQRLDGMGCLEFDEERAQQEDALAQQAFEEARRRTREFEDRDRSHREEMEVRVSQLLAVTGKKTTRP
Induced myeloid leukemia cell differentiation protein Mcl-1, sequence (Q07820 whole entry, the tested form may be a part): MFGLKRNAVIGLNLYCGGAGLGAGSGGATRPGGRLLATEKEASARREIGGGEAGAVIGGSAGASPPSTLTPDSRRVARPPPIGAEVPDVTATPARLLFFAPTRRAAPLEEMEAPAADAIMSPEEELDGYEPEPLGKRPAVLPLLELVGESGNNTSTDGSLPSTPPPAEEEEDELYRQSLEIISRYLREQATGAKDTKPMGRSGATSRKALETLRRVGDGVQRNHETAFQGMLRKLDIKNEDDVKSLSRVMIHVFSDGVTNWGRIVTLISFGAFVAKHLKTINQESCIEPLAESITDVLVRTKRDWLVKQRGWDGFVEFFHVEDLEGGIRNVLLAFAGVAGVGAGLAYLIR
Coagulation factor XII, sequence (P00748 20-372 limits assumed): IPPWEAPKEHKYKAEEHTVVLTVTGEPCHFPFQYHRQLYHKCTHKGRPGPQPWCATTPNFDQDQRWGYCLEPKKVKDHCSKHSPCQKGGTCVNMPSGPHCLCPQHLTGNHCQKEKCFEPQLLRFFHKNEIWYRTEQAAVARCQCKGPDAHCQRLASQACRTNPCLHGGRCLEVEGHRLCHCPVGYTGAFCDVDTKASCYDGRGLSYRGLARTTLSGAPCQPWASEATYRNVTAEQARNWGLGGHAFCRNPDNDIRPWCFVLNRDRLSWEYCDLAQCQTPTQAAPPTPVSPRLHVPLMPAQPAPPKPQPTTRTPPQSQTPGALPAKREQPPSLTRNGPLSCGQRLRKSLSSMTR
Coagulation factor XII, sequence (P00748 373-615 limits assumed): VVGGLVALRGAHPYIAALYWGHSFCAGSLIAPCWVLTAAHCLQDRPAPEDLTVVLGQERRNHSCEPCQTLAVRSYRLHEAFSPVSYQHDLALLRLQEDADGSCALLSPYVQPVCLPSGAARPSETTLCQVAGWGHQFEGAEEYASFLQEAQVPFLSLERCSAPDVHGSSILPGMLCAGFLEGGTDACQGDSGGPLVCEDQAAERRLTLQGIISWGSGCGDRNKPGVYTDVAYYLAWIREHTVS
Ion channel NompC, sequence (Q7T1G6 whole entry): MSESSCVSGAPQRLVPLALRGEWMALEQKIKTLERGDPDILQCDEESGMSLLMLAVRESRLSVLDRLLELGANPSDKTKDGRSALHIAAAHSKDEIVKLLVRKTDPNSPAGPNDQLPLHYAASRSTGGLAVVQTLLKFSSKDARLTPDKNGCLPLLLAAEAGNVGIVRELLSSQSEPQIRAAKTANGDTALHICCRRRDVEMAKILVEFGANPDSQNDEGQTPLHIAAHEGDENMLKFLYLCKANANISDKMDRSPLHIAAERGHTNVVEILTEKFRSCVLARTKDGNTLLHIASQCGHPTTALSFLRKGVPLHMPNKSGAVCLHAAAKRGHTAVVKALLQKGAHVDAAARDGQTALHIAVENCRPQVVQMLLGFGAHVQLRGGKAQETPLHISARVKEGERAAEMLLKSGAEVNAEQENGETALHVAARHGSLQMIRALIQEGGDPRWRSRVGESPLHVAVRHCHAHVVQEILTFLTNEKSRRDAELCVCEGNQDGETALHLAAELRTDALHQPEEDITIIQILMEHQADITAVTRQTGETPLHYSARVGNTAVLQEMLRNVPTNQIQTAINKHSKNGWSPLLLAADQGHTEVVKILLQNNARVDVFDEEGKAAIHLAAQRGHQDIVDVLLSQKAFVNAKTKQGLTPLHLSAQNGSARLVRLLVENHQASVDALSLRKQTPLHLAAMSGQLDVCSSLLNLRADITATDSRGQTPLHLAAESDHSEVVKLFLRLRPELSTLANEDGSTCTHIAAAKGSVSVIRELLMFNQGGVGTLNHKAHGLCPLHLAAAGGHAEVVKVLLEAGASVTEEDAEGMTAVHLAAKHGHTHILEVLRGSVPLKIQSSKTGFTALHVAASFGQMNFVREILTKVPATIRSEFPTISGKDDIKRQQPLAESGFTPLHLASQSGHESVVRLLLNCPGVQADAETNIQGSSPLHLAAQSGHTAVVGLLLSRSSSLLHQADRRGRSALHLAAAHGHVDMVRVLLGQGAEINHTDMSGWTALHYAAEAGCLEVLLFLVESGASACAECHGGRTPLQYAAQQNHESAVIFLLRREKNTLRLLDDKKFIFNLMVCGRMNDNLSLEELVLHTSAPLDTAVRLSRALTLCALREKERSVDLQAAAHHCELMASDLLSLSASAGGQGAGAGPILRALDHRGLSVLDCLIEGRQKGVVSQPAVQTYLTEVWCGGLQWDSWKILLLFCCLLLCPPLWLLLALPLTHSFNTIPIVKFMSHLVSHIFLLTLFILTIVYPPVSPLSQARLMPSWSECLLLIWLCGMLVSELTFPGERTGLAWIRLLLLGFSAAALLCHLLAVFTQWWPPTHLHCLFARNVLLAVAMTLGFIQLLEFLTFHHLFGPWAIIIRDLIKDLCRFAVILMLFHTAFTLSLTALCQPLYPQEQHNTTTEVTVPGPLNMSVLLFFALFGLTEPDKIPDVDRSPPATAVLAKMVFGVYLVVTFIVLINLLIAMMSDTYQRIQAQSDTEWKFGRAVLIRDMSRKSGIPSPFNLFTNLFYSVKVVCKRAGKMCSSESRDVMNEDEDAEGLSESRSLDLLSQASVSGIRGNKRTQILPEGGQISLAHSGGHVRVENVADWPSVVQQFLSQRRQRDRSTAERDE
Paired box protein Pax-8, sequence (Q06710 whole entry): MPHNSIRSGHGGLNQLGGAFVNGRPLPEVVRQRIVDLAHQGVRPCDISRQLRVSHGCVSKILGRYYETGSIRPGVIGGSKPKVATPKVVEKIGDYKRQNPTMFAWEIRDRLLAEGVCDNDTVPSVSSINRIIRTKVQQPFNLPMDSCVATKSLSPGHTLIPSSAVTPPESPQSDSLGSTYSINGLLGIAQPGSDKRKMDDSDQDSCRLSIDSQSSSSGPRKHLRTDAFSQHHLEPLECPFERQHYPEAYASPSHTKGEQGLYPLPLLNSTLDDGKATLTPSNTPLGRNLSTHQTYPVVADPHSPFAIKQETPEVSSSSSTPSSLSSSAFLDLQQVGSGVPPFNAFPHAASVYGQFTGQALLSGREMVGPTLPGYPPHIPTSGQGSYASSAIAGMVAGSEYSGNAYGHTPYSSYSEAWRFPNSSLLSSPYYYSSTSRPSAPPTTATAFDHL
DNA damage-inducible transcript 3 protein, sequence (P35639 whole entry): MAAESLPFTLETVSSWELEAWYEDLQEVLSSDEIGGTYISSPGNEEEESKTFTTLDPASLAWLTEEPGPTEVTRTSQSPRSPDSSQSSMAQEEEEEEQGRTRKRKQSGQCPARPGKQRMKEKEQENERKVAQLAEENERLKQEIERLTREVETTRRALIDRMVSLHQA
Beta Lactamase, sequence (Q932Y6 whole entry): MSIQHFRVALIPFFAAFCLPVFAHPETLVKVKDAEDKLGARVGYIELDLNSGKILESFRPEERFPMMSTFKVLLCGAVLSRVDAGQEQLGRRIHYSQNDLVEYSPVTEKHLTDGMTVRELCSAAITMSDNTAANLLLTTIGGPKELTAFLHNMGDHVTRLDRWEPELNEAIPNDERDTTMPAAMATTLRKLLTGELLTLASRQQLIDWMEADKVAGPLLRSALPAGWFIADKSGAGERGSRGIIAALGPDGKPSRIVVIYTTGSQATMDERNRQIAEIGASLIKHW
Type-1 angiotensin II receptor, sequence (P30556 whole entry, the tested form may be a part): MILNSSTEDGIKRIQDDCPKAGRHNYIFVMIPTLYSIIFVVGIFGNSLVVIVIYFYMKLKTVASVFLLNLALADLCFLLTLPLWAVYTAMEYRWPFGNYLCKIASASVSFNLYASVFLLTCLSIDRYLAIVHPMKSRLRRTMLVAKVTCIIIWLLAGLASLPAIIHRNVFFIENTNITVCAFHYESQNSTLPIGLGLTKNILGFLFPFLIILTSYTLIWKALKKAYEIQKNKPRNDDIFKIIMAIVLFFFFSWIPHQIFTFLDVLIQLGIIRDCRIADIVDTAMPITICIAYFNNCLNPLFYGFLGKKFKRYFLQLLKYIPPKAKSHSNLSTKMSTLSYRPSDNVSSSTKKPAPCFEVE

CCOc1ccc2nc(N3C(=O)C(O)=C(C(=O)c4ccco4)C3c3ccco3)sc2c1 (stereo not given)
IC50 [1]: 8.2 µM (inactive)
EC50 [2]: 1.2 µM (active)
IC50 [3]: 3 µM (active)

CCCCCCCCCCCC(=O)N1CC(=O)NC(=O)C1
IC50 (Coagulation factor XII): > 50 µM (inactive)

O=C(c1ccc(Cl)cc1)N1CCC(O)(CSc2ccc(Cl)cc2Cl)CC1
Absolute IC50 (CHOP) [4]: 10 µM

Cc1cc(C)cc(Nc2nc3ccc(C)cc3n3cnnc23)c1
EC50 [5]: > 120 µM (not active)
EC50 [6]: 16.6 µM (active)
EC50 [7]: 20.5 µM (active)
EC50 [8]: 2.82 µM (active)
EC50 [9]: > 195 µM (inconclusive)
EC50 [10]: 20.5 µM (inconclusive)
EC50 [11]: > 120 µM (not active)
EC50 [12]: 16.6 µM (inconclusive)
EC50 [13]: > 195 µM (inactive)

Nc1c(C(=O)NCCN2CCOCC2)c2nc3ccccc3nc2n1Cc1ccco1
IC50 [14]: 1.19 µM (active)
IC50 [15]: 6.49 µM (not active)
IC50 [16]: > 100 µM (inactive)

CCN(CC)CCCN(C(=O)c1ccco1)c1nc(-c2ccc(C)cc2)cs1
CC50 [17]: > 20 µM (active)
CC50 [18]: > 20 µM (active)
AC50 [19]: 20.7 µM (active)
EC50 [20]: > 195 µM (not active)
CC50 [21]: 38.2 µM (active)
IC50 (cells): 44.2 µM (active)

CC1=CC(=O)C(C(C)C)=C/C1=N/OS(=O)(=O)c1ccccc1
EC50 [22]: 4.19 µM (active)
EC50 (Mucolipin-3): > 29.9 µM (not active)
EC50 [23]: > 100 µM (inactive)
IC50 [24]: 7.38 µM (active)
IC50 [25]: 12 µM (active)
IC50 (Beta Lactamase): 49.8 µM (inactive)
AC50 (INS1): 1.06 µM (active)
AC50 (Paired box protein Pax-8): 6.97 µM (active)
AC50 [26]: 3.61 µM (active)
CC50 [27]: 9.69 µM (active)
EC50 (Ion channel NompC): > 29.9 µM (not active)

O=C(COc1ccc(F)c(Cl)c1)N[C@@H]1CCCN(Cc2ccccc2)C1
EC50 [28]: 10 µM (active)
